Data reported in the NIST ThermoML archive (doi:10.1016/j.tca.2007.08.008).
± gives the expanded uncertainty stated by the source.

Key:
[1] = Liquid; for mass density: 303.15 K, 101.33 kPa, Pycnometric method; for Normal boiling temperature: Ebulliometric method (Recirculating still)
[2] = excess molar enthalpy (molar enthalpy of mixing); xn = mol fraction of the nth substance listed; conditions: 298.15 K, 101.3 kPa, Liquid, Calvet calorimetry

In the case of ClCCCl [1,2-dichloroethane], the mass density [1] is reported as 1238.41 ± 1.2 kg/m3 and the Normal boiling temperature [1] is reported as 83.80 ± 0.2 °C.
For CC(Cl)(Cl)Cl [1,1,1-trichloroethane] + C[S+](C)[O-], the excess molar enthalpy ([2]; x1 = 0.0243) was -0.0102 ± 0.000311 kcal/mol, the excess molar enthalpy ([2]; x1 = 0.0579) was -0.023 ± 0.000574 kcal/mol and the excess molar enthalpy ([2]; x1 = 0.109) was -0.0422 ± 0.000956 kcal/mol. It also gave an excess molar enthalpy ([2]; x1 = 0.1532) of -0.0563 ± 0.00127 kcal/mol, an excess molar enthalpy ([2]; x1 = 0.1973) of -0.0679 ± 0.00151 kcal/mol and an excess molar enthalpy ([2]; x1 = 0.244) of -0.0796 ± 0.00174 kcal/mol. For the same molecule, the excess molar enthalpy ([2]; x1 = 0.2857) was -0.087 ± 0.00191 kcal/mol, the excess molar enthalpy ([2]; x1 = 0.3462) was -0.0932 ± 0.00203 kcal/mol and the excess molar enthalpy ([2]; x1 = 0.4106) was -0.0986 ± 0.00215 kcal/mol. The excess molar enthalpy ([2]; x1 = 0.4797) was -0.0987 ± 0.00215 kcal/mol, the excess molar enthalpy ([2]; x1 = 0.5571) was -0.0945 ± 0.00208 kcal/mol and the excess molar enthalpy ([2]; x1 = 0.6064) was -0.0869 ± 0.00191 kcal/mol. The excess molar enthalpy ([2]; x1 = 0.6632) was -0.0775 ± 0.0017 kcal/mol, the excess molar enthalpy ([2]; x1 = 0.7189) was -0.0666 ± 0.00148 kcal/mol and the excess molar enthalpy ([2]; x1 = 0.7771) was -0.0526 ± 0.0012 kcal/mol. The excess molar enthalpy ([2]; x1 = 0.8537) was -0.0323 ± 0.000765 kcal/mol and the excess molar enthalpy ([2]; x1 = 0.9297) was -0.0102 ± 0.000311 kcal/mol.
Work on ClCCCl [1,2-dichloroethane] + C[S+](C)[O-] yielded an excess molar enthalpy ([2]; x1 = 0.0732) of -0.0141 ± 0.000382 kcal/mol, an excess molar enthalpy ([2]; x1 = 0.1296) of -0.0219 ± 0.00055 kcal/mol and an excess molar enthalpy ([2]; x1 = 0.1713) of -0.0257 ± 0.000621 kcal/mol. It also gave an excess molar enthalpy ([2]; x1 = 0.2259) of -0.0301 ± 0.000717 kcal/mol, an excess molar enthalpy ([2]; x1 = 0.2783) of -0.0361 ± 0.000837 kcal/mol and an excess molar enthalpy ([2]; x1 = 0.3275) of -0.0458 ± 0.00105 kcal/mol. For the same molecule, the excess molar enthalpy ([2]; x1 = 0.3609) was -0.0548 ± 0.00122 kcal/mol, the excess molar enthalpy ([2]; x1 = 0.4054) was -0.0712 ± 0.00158 kcal/mol and the excess molar enthalpy ([2]; x1 = 0.4636) was -0.0899 ± 0.00196 kcal/mol. It also gave an excess molar enthalpy ([2]; x1 = 0.5266) of -0.11 ± 0.00239 kcal/mol, an excess molar enthalpy ([2]; x1 = 0.6133) of -0.138 ± 0.00311 kcal/mol and an excess molar enthalpy ([2]; x1 = 0.6613) of -0.143 ± 0.00311 kcal/mol. The excess molar enthalpy ([2]; x1 = 0.7158) was -0.131 ± 0.00287 kcal/mol, the excess molar enthalpy ([2]; x1 = 0.7593) was -0.127 ± 0.00263 kcal/mol and the excess molar enthalpy ([2]; x1 = 0.8032) was -0.106 ± 0.00232 kcal/mol. It also gave an excess molar enthalpy ([2]; x1 = 0.861) of -0.0677 ± 0.00151 kcal/mol and an excess molar enthalpy ([2]; x1 = 0.9269) of -0.0285 ± 0.000669 kcal/mol.
C[S+](C)[O-] [dimethyl sulfoxide] showed a mass density [1] of 1092.4 ± 1 kg/m3 and a Normal boiling temperature [1] of 189.04 ± 0.2 °C.
ClC(Cl)=C(Cl)Cl [tetrachloroethene] + C[S+](C)[O-] showed an excess molar enthalpy ([2]; x1 = 0.0544) of 0.0285 ± 0.000669 kcal/mol, an excess molar enthalpy ([2]; x1 = 0.1116) of 0.0584 ± 0.00131 kcal/mol and an excess molar enthalpy ([2]; x1 = 0.171) of 0.0912 ± 0.00201 kcal/mol. The excess molar enthalpy ([2]; x1 = 0.2237) was 0.117 ± 0.00263 kcal/mol, the excess molar enthalpy ([2]; x1 = 0.2735) was 0.141 ± 0.00311 kcal/mol and the excess molar enthalpy ([2]; x1 = 0.3306) was 0.155 ± 0.00335 kcal/mol. The excess molar enthalpy ([2]; x1 = 0.385) was 0.157 ± 0.00335 kcal/mol, the excess molar enthalpy ([2]; x1 = 0.477) was 0.139 ± 0.00311 kcal/mol and the excess molar enthalpy ([2]; x1 = 0.5162) was 0.123 ± 0.00263 kcal/mol. It also gave an excess molar enthalpy ([2]; x1 = 0.5695) of 0.105 ± 0.00227 kcal/mol, an excess molar enthalpy ([2]; x1 = 0.6333) of 0.0866 ± 0.00189 kcal/mol and an excess molar enthalpy ([2]; x1 = 0.701) of 0.0645 ± 0.00143 kcal/mol. It also gave an excess molar enthalpy ([2]; x1 = 0.7632) of 0.0522 ± 0.00117 kcal/mol, an excess molar enthalpy ([2]; x1 = 0.8252) of 0.0488 ± 0.0011 kcal/mol and an excess molar enthalpy ([2]; x1 = 0.8872) of 0.0456 ± 0.00103 kcal/mol. For the same molecule, the excess molar enthalpy ([2]; x1 = 0.9519) was 0.0314 ± 0.000741 kcal/mol.
ClC(Cl)C(Cl)Cl [1,1,2,2-tetrachloroethane] gave a mass density [1] of 1578.59 ± 1.5 kg/m3 and a Normal boiling temperature [1] of 145.20 ± 0.2 °C.
CC(Cl)(Cl)Cl [1,1,1-trichloroethane] showed a mass density [1] of 1320.97 ± 1.3 kg/m3 and a Normal boiling temperature [1] of 74.20 ± 0.2 °C.
ClC(Cl)C(Cl)Cl [1,1,2,2-tetrachloroethane] + C[S+](C)[O-] gave an excess molar enthalpy ([2]; x1 = 0.0378) of -0.0704 ± 0.00155 kcal/mol, an excess molar enthalpy ([2]; x1 = 0.0688) of -0.149 ± 0.00311 kcal/mol and an excess molar enthalpy ([2]; x1 = 0.1005) of -0.229 ± 0.00502 kcal/mol. For the same molecule, the excess molar enthalpy ([2]; x1 = 0.1295) was -0.307 ± 0.00669 kcal/mol, the excess molar enthalpy ([2]; x1 = 0.1325) was -0.309 ± 0.00669 kcal/mol and the excess molar enthalpy ([2]; x1 = 0.1565) was -0.372 ± 0.00789 kcal/mol. The excess molar enthalpy ([2]; x1 = 0.1793) was -0.423 ± 0.00908 kcal/mol, the excess molar enthalpy ([2]; x1 = 0.2167) was -0.494 ± 0.0105 kcal/mol and the excess molar enthalpy ([2]; x1 = 0.2914) was -0.652 ± 0.0139 kcal/mol. It also gave an excess molar enthalpy ([2]; x1 = 0.3555) of -0.774 ± 0.0165 kcal/mol, an excess molar enthalpy ([2]; x1 = 0.4111) of -0.839 ± 0.0179 kcal/mol and an excess molar enthalpy ([2]; x1 = 0.4577) of -0.843 ± 0.0179 kcal/mol. For the same molecule, the excess molar enthalpy ([2]; x1 = 0.4979) was -0.84 ± 0.0179 kcal/mol, the excess molar enthalpy ([2]; x1 = 0.5577) was -0.816 ± 0.0174 kcal/mol and the excess molar enthalpy ([2]; x1 = 0.6277) was -0.755 ± 0.016 kcal/mol. The excess molar enthalpy ([2]; x1 = 0.6654) was -0.712 ± 0.0151 kcal/mol, the excess molar enthalpy ([2]; x1 = 0.7123) was -0.664 ± 0.0141 kcal/mol and the excess molar enthalpy ([2]; x1 = 0.7577) was -0.609 ± 0.0129 kcal/mol. It also gave an excess molar enthalpy ([2]; x1 = 0.8121) of -0.514 ± 0.011 kcal/mol, an excess molar enthalpy ([2]; x1 = 0.8537) of -0.435 ± 0.00932 kcal/mol and an excess molar enthalpy ([2]; x1 = 0.9099) of -0.252 ± 0.0055 kcal/mol.
In the case of ClC=C(Cl)Cl [trichloroethene] + C[S+](C)[O-], the excess molar enthalpy ([2]; x1 = 0.0673) is reported as -0.0229 ± 0.000574 kcal/mol, the excess molar enthalpy ([2]; x1 = 0.1345) is reported as -0.0579 ± 0.00129 kcal/mol and the excess molar enthalpy ([2]; x1 = 0.2079) is reported as -0.106 ± 0.00232 kcal/mol. For the same molecule, the excess molar enthalpy ([2]; x1 = 0.3016) was -0.152 ± 0.00335 kcal/mol, the excess molar enthalpy ([2]; x1 = 0.3784) was -0.153 ± 0.00335 kcal/mol and the excess molar enthalpy ([2]; x1 = 0.4461) was -0.147 ± 0.00311 kcal/mol. For the same molecule, the excess molar enthalpy ([2]; x1 = 0.4987) was -0.14 ± 0.00311 kcal/mol, the excess molar enthalpy ([2]; x1 = 0.6022) was -0.11 ± 0.00239 kcal/mol and the excess molar enthalpy ([2]; x1 = 0.6641) was -0.102 ± 0.00222 kcal/mol. For the same molecule, the excess molar enthalpy ([2]; x1 = 0.7014) was -0.098 ± 0.00215 kcal/mol, the excess molar enthalpy ([2]; x1 = 0.737) was -0.0976 ± 0.00213 kcal/mol and the excess molar enthalpy ([2]; x1 = 0.8114) was -0.0854 ± 0.00186 kcal/mol. The excess molar enthalpy ([2]; x1 = 0.8611) was -0.0706 ± 0.00155 kcal/mol and the excess molar enthalpy ([2]; x1 = 0.9151) was -0.0481 ± 0.0011 kcal/mol.
Work on ClC(Cl)=C(Cl)Cl [tetrachloroethene] yielded a mass density [1] of 1606.39 ± 1.6 kg/m3 and a Normal boiling temperature [1] of 121.00 ± 0.2 °C.
With ClC=C(Cl)Cl [trichloroethene] the mass density [1] was 1451.42 ± 1.4 kg/m3 and the Normal boiling temperature [1] was 87.10 ± 0.2 °C.
